Data taken from PMC5691209, “Specific Targeting of Melanotic Cells with Peptide Ligated Photosensitizers for Photodynamic Therapy” (Scientific Reports, 2017).

Tests used:
[1] = test system: B16-F10 mouse melanoma cells; experiment: Melanin assay (extra- and intracellular melanin production); format: cell-based; conditions: B16-F10, 72 h at 37 °C, OD at 475 nm, α-MSH 10 nM, NAP, HPPH-NAP, MB, HPPH 1 µM, mean of three independent experiments
Procedure: B16-F10 mouse melanoma cells or human mid-pigmented melanoma cells FM55 were seeded in Nunc 6-well tissue culture plates using DMEM medium without phenol red. After overnight incubation of the cells at 37 °C, various photosensitizers (1 µM) or peptide conjugated photosensitizers (1 µM) were added at room temperature and the cells were incubated at 37 °C for 72 h. After three days of incubation, supernatants of cell (200 µL) were pipetted out from Nunc 6-well tissue culture plates as extracellular melanin pigment and three concurrent absorption measurements were taken at 475 nm using a Spectra Max MS microplate/cuvette reader (Fig. 3c,e). Adherent cells in the Nunc 6-well plates were detached with 0.02% EDTA and centrifuged at 2000 rpm for 3 min. […] Three concurrent absorption measurements were taken at 475 nm using a Spectra Max MS microplate/cuvette reader (Fig. 3d,f). […]
B16-F10 and FM55 melanin assays are represented as the average of three independent experiments expressed as Mean ± SEM. Differences between various groups were calculated using one way ANOVA post Bonferroni’s multiple comparison test and results were reported as significant if P-value was below 0.05. Phototoxicity SRB data of B16-F10, MeL, FM55 and N/TERT-1 was analyzed via student t test and significance was reported if P-value was below 0.05.

B16-F10 melanoma cells = experiment: Cell proliferation with LED light irradiation (Incucyte confluence); format: cell-based, mouse; conditions: 5 µM
Procedure: B16-F10 murine melanoma cells were seeded at a density of 3000–4000 cells per well in 96-well black-view Perkin-Elmer plates using DMEM medium without phenol red. After an overnight incubation at 37 °C, the medium was aspirated from the wells and varying concentrations of synthetic peptide-photosensitizer constructs diluted in DMEM medium were added to the cells. The cells were incubated in dark at 37 °C for 4 h and then washed twice with 1X PBS buffer (200 µL). Fresh medium (300 µL) was added to the wells before placing the plates in the Incucyte ZOOM live cell imaging machine to capture the images after every hour. Percentage of confluence was measured over a time period of 24–72 h. For skin keratinocyte cell line N/TERT-1, the starting confluence was 75–85% of cell density for the initial light experiments. The higher cell density was used to mimic the physiological condition in the body, where keratinocytes are present in much larger numbers (30:1) than melanocytes.
This combinatorial equipment comprises light irradiation system with multiple wavelengths LED (From UVA to near IR) assembled with well-established incucyte that contains incubator and light microscope. […] Incucyte light microscope was used to capture images of the cell growth at every hour or two, from which percentage confluence (i.e. cell densities) were calculated. […]

Row | Compound | extra- and intracellular melanin production [1] | light induced cytotoxicity (cell proliferation) (B16-F10 melanoma cells; B16-F10, 627 nm LED light 0.10 mW/cm^2, 48 h continuously) | light induced cytotoxicity (cell proliferation) (B16-F10 melanoma cells; B16-F10, 660 nm LED light 0.10 mW/cm^2, 48 h continuously)
1 | 2-(1-hexyloxyethyl)-2-devinyl pyropheophorbide [HPPH] | did not induce any melanin production | cytotoxicity was observed | cytotoxicity was observed
2 | CN(C)c1ccc2nc3ccc(=[N+](C)C)cc-3sc2c1 [MB, methylene blue] | did not induce any melanin production | – | –
